Target: T1, human PAH with the R408W mutation (A375 R408W cells) (Homo sapiens, UniProt P00439, R408W)
T1 construct: expressed in transfected cells
T1 sequence (P00439 1-452 R408W): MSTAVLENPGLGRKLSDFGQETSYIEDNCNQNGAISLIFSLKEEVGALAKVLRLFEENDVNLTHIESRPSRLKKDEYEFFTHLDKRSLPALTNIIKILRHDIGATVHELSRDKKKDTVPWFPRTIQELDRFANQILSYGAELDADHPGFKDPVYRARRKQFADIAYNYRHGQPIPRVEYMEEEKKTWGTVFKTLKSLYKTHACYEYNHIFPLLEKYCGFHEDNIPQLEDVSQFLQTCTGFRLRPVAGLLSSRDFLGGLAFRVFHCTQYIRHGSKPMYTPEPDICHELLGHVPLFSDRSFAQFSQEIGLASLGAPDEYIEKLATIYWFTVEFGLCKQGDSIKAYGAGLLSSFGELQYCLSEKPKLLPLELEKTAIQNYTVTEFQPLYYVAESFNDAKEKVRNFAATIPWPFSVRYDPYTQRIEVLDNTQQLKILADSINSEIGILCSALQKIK
Assay: Cell Based Phenylalanine Flux Assay
Conditions: A375 R408W cells; 24 hrs with compound, then 20 μM sepiapterin and 800 μM 13C9,15N-Phenylalanine for 4 hours; 13C-Tyrosine by LC-MS; average where tested multiple times
Outline: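 A375 cells stably expressing human PAH R408W treated 24 h at 37° C with a 10-point 2-fold dose curve in duplicate, 0.5% DMSO. Then 20 μM sepiapterin and 800 μM 13C9,15N-Phe added for 4 h; 13C-Tyr in media measured by LC-MS to give AC50.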

| AC50 | Compound |
| --- | --- |
| ≤ 0.5 µM | CC(C)(O)c1nc(C(F)F)c(C(=O)N2CCc3[nH]cnc3[C@H]2c2nc3cc(Cl)cc(F)c3o2)o1 [Example 605, (S)-(4-(5-chloro-7-fluorobenzo[d]oxazol-2-yl)-6,7-dihydro-1H-imidazo[4,5-c]pyridin-5(4H)-yl)(4-(difluoromethyl)-2-(2-hydroxypropan-2-yl)oxazol-5-yl)methanone] |
| ≤ 0.5 µM | Cn1ccc(-c2nc(C(F)F)c(C(=O)N3CCc4[nH]cnc4[C@H]3c3nc4cc(F)ccc4o3)o2)n1 [Example 411, (S)-(4-(difluoromethyl)-2-(1-methyl-1H-pyrazol-3-yl)oxazol-5-yl)(4-(5-fluorobenzo[d]oxazol-2-yl)-6,7-dihydro-1H-imidazo[4,5-c]pyridin-5(4H)-yl)methanone] |
| 0.5 to 1 µM | Cc1cccc2nc([C@@H]3c4nc[nH]c4CCN3C(=O)c3cnco3)oc12 [Example 611, (S)-(4-(7-methylbenzo[d]oxazol-2-yl)-6,7-dihydro-1H-imidazo[4,5-c]pyridin-5(4H)-yl)(oxazol-5-yl)methanone] |
| 1 to 5 µM | O=C(c1cnco1)N1CCc2[nH]cnc2[C@@H]1c1nc2cccc(F)c2o1 [Example 282, (R)-(4-(7-fluorobenzo[d]oxazol-2-yl)-6,7-dihydro-1H-imidazo[4,5-c]pyridin-5(4H)-yl)(oxazol-5-yl)methanone] |
| ≤ 0.5 µM | Cc1ccc2oc([C@@H]3c4nc[nH]c4CCN3C(=O)c3oc(-c4cnn(C)c4)nc3C(F)F)nc2c1 [Example 771, (S)-(4-(difluoromethyl)-2-(1-methyl-1H-pyrazol-4-yl)oxazol-5-yl)(4-(5-methylbenzo[d]oxazol-2-yl)-6,7-dihydro-1H-imidazo[4,5-c]pyridin-5(4H)-yl)methanone] |
| ≤ 0.5 µM | CC(C)(O)c1nc(C(F)F)c(C(=O)N2CCc3[nH]cnc3[C@H]2c2nc3c(OC(F)(F)F)cccc3o2)o1 [Example 533, (S)-(4-(difluoromethyl)-2-(2-hydroxypropan-2-yl)oxazol-5-yl)(4-(4-(trifluoromethoxy)benzo[d]oxazol-2-yl)-6,7-dihydro-1H-imidazo[4,5-c]pyridin-5(4H)-yl)methanone] |

Further lines, the molecule ahead of its results:

| Compound | AC50 |
| --- | --- |
| O=C(c1ccnn1C(F)F)N1CCc2[nH]cnc2[C@H]1c1nc2ccc(F)c(F)c2o1 [Example 513, (S)-(4-(6,7-difluorobenzo[d]oxazol-2-yl)-6,7-dihydro-1H-imidazo[4,5-c]pyridin-5(4H)-yl)(1-(difluoromethyl)-1H-pyrazol-5-yl)methanone] | 0.5 to 1 µM |
| O=C(c1nnc(-c2cnccn2)o1)N1CCc2[nH]cnc2[C@@H]1c1nc2cc(F)ccc2o1 [Example 627, (R)-(4-(5-fluorobenzo[d]oxazol-2-yl)-6,7-dihydro-1H-imidazo[4,5-c]pyridin-5(4H)-yl)(5-(pyrazin-2-yl)-1,3,4-oxadiazol-2-yl)methanone] | 1 to 5 µM |
| CNC(C)(C)c1nc(C(F)F)c(C(=O)N2CCc3[nH]cnc3[C@H]2c2nc3cc(F)ccc3o2)o1 [Example 221, (S)-(4-(difluoromethyl)-2-(2-(methylamino)propan-2-yl)oxazol-5-yl)(4-(5-fluorobenzo[d]oxazol-2-yl)-6,7-dihydro-1H-imidazo[4,5-c]pyridin-5(4H)-yl)methanone] | 0.5 to 1 µM |
| Cc1ccc2oc([C@@H]3c4nc[nH]c4CCN3C(=O)c3ocnc3C(F)(F)F)nc2c1 [Example 63, (S)-(4-(5-methylbenzo[d]oxazol-2-yl)-6,7-dihydro-1H-imidazo[4,5-c]pyridin-5(4H)-yl)(4-(trifluoromethyl)oxazol-5-yl)methanone] | ≤ 0.5 µM |
| Cn1cc(-c2ccc3c(C(=O)N4CCc5[nH]cnc5[C@@H]4c4nc5cccc(F)c5o4)cnn3c2)cn1 [Example 384, (R)-(4-(7-fluorobenzo[d]oxazol-2-yl)-6,7-dihydro-1H-imidazo[4,5-c]pyridin-5(4H)-yl)(6-(1-methyl-1H-pyrazol-4-yl)pyrazolo[1,5-a]pyridin-3-yl)methanone] | 1 to 5 µM |
| CNc1cn2ncc(C(=O)N3CCc4[nH]cnc4[C@H]3c3nc4cc(F)ccc4o3)c2cc1Cl [Example 205, (S)-(5-chloro-6-(methylamino)pyrazolo[1,5-a]pyridin-3-yl)(4-(5-fluorobenzo[d]oxazol-2-yl)-6,7-dihydro-1H-imidazo[4,5-c]pyridin-5(4H)-yl)methanone] | ≤ 0.5 µM |
| [2H]C([2H])([2H])OCc1nc(C(F)F)c(C(=O)N2CCc3[nH]cnc3[C@H]2c2nc3cc(F)ccc3o2)o1 [Example 155, (S)-(4-(difluoromethyl)-2-((methoxy-d3)methyl)oxazol-5-yl)(4-(5-fluorobenzo[d]oxazol-2-yl)-1,4,6,7-tetrahydro-5H-imidazo[4,5-c]pyridin-5-yl)methanone] | ≤ 0.5 µM |
| Cc1cccc2nc([C@@H]3c4nc[nH]c4CCN3C(=O)c3nnc(-c4ccn(C(F)F)n4)o3)oc12 [Example 860, (S)-(5-(1-(difluoromethyl)-1H-pyrazol-3-yl)-1,3,4-oxadiazol-2-yl)(4-(7-methylbenzo[d]oxazol-2-yl)-6,7-dihydro-1H-imidazo[4,5-c]pyridin-5(4H)-yl)methanone] | 0.5 to 1 µM |
| CN(C)Cc1cn2ncc(C(=O)N3CCc4[nH]cnc4[C@H]3c3nc4cc(F)ccc4o3)c2cc1Cl [Example 203, (S)-(5-chloro-6-((dimethylamino)methyl)pyrazolo[1,5-a]pyridin-3-yl)(4-(5-fluorobenzo[d]oxazol-2-yl)-6,7-dihydro-1H-imidazo[4,5-c]pyridin-5(4H)-yl)methanonee] | 0.5 to 1 µM |
| Cc1ccc2oc([C@H]3c4nc[nH]c4CCN3C(=O)c3ocnc3C(F)F)nc2c1 [Example 138, (R)-(4-(difluoromethyl)oxazol-5-yl)(4-(5-methylbenzo[d]oxazol-2-yl)-6,7-dihydro-1H-imidazo[4,5-c]pyridin-5(4H)-yl)methanone] | ≤ 0.5 µM |
| Cn1nc(C(F)F)nc1C(=O)N1CCc2[nH]cnc2[C@H]1c1nc2c(F)ccc(F)c2o1 [Example 486, (S)-(4-(4,7-difluorobenzo[d]oxazol-2-yl)-6,7-dihydro-1H-imidazo[4,5-c]pyridin-5(4H)-yl)(3-(difluoromethyl)-1-methyl-1H-1,2,4-triazol-5-yl)methanone] | 0.5 to 1 µM |
| Cc1ncoc1C(=O)N1CCc2[nH]cnc2[C@@H]1c1nc2c(F)ccc(F)c2o1 [Example 808, (R)-(4-(4,7-difluorobenzo[d]oxazol-2-yl)-6,7-dihydro-1H-imidazo[4,5-c]pyridin-5(4H)-yl)(4-methyloxazol-5-yl)methanone] | 1 to 5 µM |
| COc1cccc2oc([C@H]3c4nc[nH]c4CCN3C(=O)c3nnc(-c4ccccn4)o3)nc12 [Example 623, (R)-(4-(4-methoxybenzo[d]oxazol-2-yl)-6,7-dihydro-1H-imidazo[4,5-c]pyridin-5(4H)-yl)(5-(pyridin-2-yl)-1,3,4-oxadiazol-2-yl)methanone] | 1 to 5 µM |
| O=C(c1ccnn1C(F)(F)F)N1CCc2[nH]cnc2[C@H]1c1nc2cccc(F)c2o1 [Example 289, (S)-(4-(7-fluorobenzo[d]oxazol-2-yl)-6,7-dihydro-1H-imidazo[4,5-c]pyridin-5(4H)-yl)(1-(trifluoromethyl)-1H-pyrazol-5-yl)methanone] | 0.5 to 1 µM |
| Cn1cc(-c2nnc(C(=O)N3CCc4[nH]cnc4[C@@H]3c3nc4c(F)cc(F)cc4o3)o2)cn1 [Example 521, (R)-(4-(4,6-difluorobenzo[d]oxazol-2-yl)-6,7-dihydro-1H-imidazo[4,5-c]pyridin-5(4H)-yl)(5-(1-methyl-1H-pyrazol-4-yl)-1,3,4-oxadiazol-2-yl)methanone] | 1 to 5 µM |
| Cc1ccc2nc([C@H]3c4nc[nH]c4CCN3C(=O)c3nnc(-c4ccccn4)o3)oc2c1 [Example 102, (R)-(4-(6-methylbenzo[d]oxazol-2-yl)-6,7-dihydro-1H-imidazo[4,5-c]pyridin-5(4H)-yl)(5-(pyridin-2-yl)-1,3,4-oxadiazol-2-yl)methanone] | 1 to 5 µM |

Same assay, conditions: A375 cells expressing R408W PAH; 24 hrs with compound, then 20 μM sepiapterin and 800 μM 13C9,15N-Phenylalanine for 4 hours; 13C-Tyrosine by LC-MS; average where tested multiple times

| AC50 | Compound |
| --- | --- |
| 1 to 5 µM | O=C(c1ccn(CC(F)F)n1)N1CCc2[nH]cnc2C1c1nc2ccccc2o1 (centres unmarked) |
| ≥ 5 µM | CC(C)(O)c1nc(C(=O)N2CCc3[nH]cnc3C2c2nc3cc(F)ccc3o2)no1 (centres unmarked) |
| 1 to 5 µM | O=C(N1CCc2[nH]cnc2C1c1nc2cc(F)ccc2o1)C(F)(F)C1(O)CCC1 (centres unmarked) |
| ≥ 5 µM | Cn1ccc(C(=O)N2CCc3[nH]cnc3C2c2nc3cc(F)ccc3o2)n1 (centres unmarked) |
| 1 to 5 µM | Nc1ccc2c(C(=O)N3CCc4[nH]cnc4C3c3nc4cc(F)ccc4o3)cnn2c1 (centres unmarked) |
| ≥ 5 µM | O=C(C1CC1(F)F)N1CCc2[nH]cnc2C1c1nc2cc(F)ccc2o1 (centres unmarked) |
| ≥ 5 µM | Fc1ccc2oc(C3c4nc[nH]c4CCN3Cc3ocnc3C(F)F)nc2c1 (centres unmarked) |
| ≥ 5 µM | O=C(c1cnn2cc(N3CCC(O)CC3)ccc12)N1CCc2[nH]cnc2C1c1nc2c(F)cccc2o1 (centres unmarked) |

Continued, molecule first:

| Compound | AC50 |
| --- | --- |
| CC(C)(O)c1ncc(C(=O)N2CCc3[nH]cnc3C2c2nc3c(F)cc(F)cc3o2)o1 (centres unmarked) | 1 to 5 µM |
| O=C(c1cnn2cc(OCCn3cccn3)ccc12)N1CCc2[nH]cnc2C1c1nc2cc(F)ccc2o1 (centres unmarked) | ≥ 5 µM |
| O=C(c1cnn2cc(N3CCS(=O)(=O)CC3)ccc12)N1CCc2[nH]cnc2C1c1nc2cc(F)ccc2o1 (centres unmarked) | ≥ 5 µM |
| Cn1nc(C(F)(F)F)nc1C(=O)N1CCc2[nH]cnc2C1c1nc2cc(F)ccc2o1 (centres unmarked) | 1 to 5 µM |
| Cc1nc(C(C)O)oc1C(=O)N1CCc2[nH]cnc2C1c1nc2ccc(F)cc2o1 (centres unmarked) | ≥ 5 µM |

From patent US20250171437A1 (Agios Pharmaceuticals,Inc., priority 2022, published 2025)
